Test results published in patent publication US8247211B2, “Glycopeptide antibiotics” (American Cyanamid Company, priority 2001, dated 2012).

Key:
Assay in all cases: In vitro antibacterial evaluation: minimum inhibitory concentration (MIC), broth dilution method
Assay type in all cases: cell-based
[1] = tested on: Enterococcus sp.; details: 18 hours at 35° C.
Method in brief: (§1)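 First, organisms are seeded at 5×10^5 CFU/mL into Muller-Hinton II […]. Next, antibiotic is applied across 64-0.06 μg/mL by broth dilution (NCCLS M7-A2). Finally, the lowest inhibitory concentration is recorded as MIC.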

[2] = tested on: Staphylococcus sp.
Method in brief: as §1

[3] = tested on: Escherichia coli; details: 18 hours at 35° C.
Method in brief: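 Test strains, among them recent clinical isolates carrying methicillin, penicillin and/or vancomycin resistance, were inoculated at 5×10^5 CFU/mL. A broth dilution series spanning 64-0.06 μg/mL in Muller-Hinton II […] (NCCLS M7-A2) defined the MIC as the lowest growth-inhibiting concentration.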

[4] = tested on: Streptococcus sp.; details: 18 hours at 35° C.
Method in brief: as §1

[5] = broth dilution, inoculum 5×10^5 CFU/mL

CC(c1ccccc1)C1NC(=O)CNC(=O)C(CO)NC(=O)C(C(O)C2CNC(=N)N2C2OC(CO)C(O)C(O)C2O)NC(=O)C(C(O)C2CNC(=N)N2)NC(=O)C(Cc2ccc(OC3OC(CO)C(OC4OC5COC6(OC5C(O)C4O)C4CCCC6CCC4)C(O)C3O)cc2)NC1=O (stereo not drawn) [Example 212, Cyclo[glycyl-β-methylphenylalanyl-O-[4-O-(4,6-O-bicyclo[3.3.1]non-9-ylidenehexopyranosyl]hexopyranosyl]tyrosyl-3-(2-iminoimidazolidin-4-yl)seryl-3-(3-hexopyranosyl-2-iminoimidazolidin-4-yl)serylseryl]]
8 µg/mL: MIC Enterococcus faecalis (ATCC 29212) ([1]; Enterococcus faecalis (ATCC 29212)) | MIC Enterococcus faecalis (GC 2242) ([1]; Enterococcus faecalis (GC 2242)) | MIC Enterococcus faecalis (GC 2691) ([1]; Enterococcus faecalis (GC 2691)) | MIC Enterococcus faecalis (GC 3059) ([1]; Enterococcus faecalis (GC 3059)) | MIC Enterococcus faecalis (GC 4552) ([1]; Enterococcus faecalis (GC 4552)) | MIC Enterococcus faecalis (GC 4553) ([1]; Enterococcus faecalis (GC 4553)) | MIC Enterococcus faecalis (GC 4554) ([1]; Enterococcus faecalis (GC 4554)) | MIC Enterococcus faecalis (GC 6189) ([1]; Enterococcus faecalis (GC 6189)) | MIC Enterococcus faecium (GC 2243) ([1]; Enterococcus faecium (GC 2243)) | MIC Enterococcus faecium (GC 4556) ([1]; Enterococcus faecium (GC 4556)) | MIC Enterococcus faecalis (ATCC 29212) [1, 5] | MIC Enterococcus faecalis (GC 2242) [1, 5] | MIC Enterococcus faecalis (GC 2691) [1, 5] | MIC Enterococcus faecalis (GC 3059) [1, 5] | MIC Enterococcus faecalis (GC 4552) [1, 5] | MIC Enterococcus faecalis (GC 4553) [1, 5] | MIC Enterococcus faecalis (GC 4554) [1, 5] | MIC Enterococcus faecalis (GC 6189) [1, 5] | MIC Enterococcus faecium (GC 2243) [1, 5] | MIC Enterococcus faecium (GC 4556) [1, 5]
0.5 µg/mL: MIC Streptococcus pneumoniae (ATCC 6301) ([4]; Streptococcus pneumoniae (ATCC 6301)) | MIC Streptococcus pneumoniae (ATCC 6301) [4, 5]
4 µg/mL: MIC Enterococcus avium (GC 4558) ([1]; Enterococcus avium (GC 4558)) | MIC Enterococcus faecium (GC 4557) ([1]; Enterococcus faecium (GC 4557)) | MIC Enterococcus avium (GC 4558) [1, 5] | MIC Enterococcus faecium (GC 4557) [1, 5] | MIC Staphylococcus aureus (GC 1131) ([2]; strain GC 1131) | MIC Staphylococcus aureus (GC 3053) ([2]; strain GC 3053) | MIC Staphylococcus aureus (GC 4544) ([2]; strain GC 4544)
1 µg/mL: MIC Coagulase Negative Staphylococcus (GC 6257) ([2]; strain GC 6257) | MIC Streptococcus agalactiae (GC 4564) ([4]; Streptococcus agalactiae (GC 4564)) | MIC Streptococcus pyogenes (GC 4563) ([4]; Streptococcus pyogenes (GC 4563)) | MIC Streptococcus agalactiae (GC 4564) [4, 5] | MIC Streptococcus pyogenes (GC 4563) [4, 5]
<0.06 µg/mL: MIC Streptococcus pneumoniae (GC 1894) ([4]; Streptococcus pneumoniae (GC 1894)) | MIC Streptococcus pneumoniae (GC 1894) [4, 5]
0.25 µg/mL: MIC Streptococcus pneumoniae (GC 4565) ([4]; Streptococcus pneumoniae (GC 4565)) | MIC Streptococcus pneumoniae (GC 4565) [4, 5]
32 µg/mL: MIC Escherichia coli (ATCC 25922) ([3]; Escherichia coli (ATCC 25922)) | MIC Escherichia coli (GC 4559) ([3]; Escherichia coli (GC 4559))
2 µg/mL: MIC Staphylococcus aureus (ATCC 29213) ([2]; strain ATCC 29213) | MIC Staphylococcus aureus (GC 3051) ([2]; strain GC 3051) | MIC Staphylococcus aureus (GC 4541) ([2]; strain GC 4541) | MIC Staphylococcus aureus (GC 4542) ([2]; strain GC 4542) | MIC Staphylococcus aureus-SMITH (GC 4543) ([2]; strain GC 4543) | MIC Staphylococcus aureus (GC 4545) ([2]; strain GC 4545) | MIC Staphylococcus haemolyticus (GC 4546) ([2]; strain GC 4546) | MIC Coagulase Negative Staphylococcus (GC 4547) ([2]; strain GC 4547) | MIC Coagulase Negative Staphylococcus (GC 4548) ([2]; strain GC 4548) | MIC Coagulase Negative Staphylococcus (GC 4549) ([2]; strain GC 4549) | MIC Coagulase Negative Staphylococcus (GC 4551) ([2]; strain GC 4551) | MIC Escherichia coli (GC 4560) ([3]; Escherichia coli (GC 4560))
